From patent US6783949B1, “Processes for determining whether a test substance contains lipases or lipase inhibitors” (Aventis Pharma Deutschland GmbH, priority 1999, dated 2004)
Several values for one entry are separate records, joined by “and”; a condition that tells them apart may be missing. Identical values can stand only once.

Columns and labels:
HSL [1] = biological target: T1, HSL (Rattus norvegicus, UniProt P15304); test: PNPB assay; assay type: biochemical; settings: Example 6, Table 6; n=5, mean±SD
T1 construct: The partially purified HSL can be stored at −70° C. for 4 to 6 weeks; from tissue; host or cells: rat epididymal fat cells (male Wistar rats)
T1 sequence (P15304 1-768 isoform P15304-2): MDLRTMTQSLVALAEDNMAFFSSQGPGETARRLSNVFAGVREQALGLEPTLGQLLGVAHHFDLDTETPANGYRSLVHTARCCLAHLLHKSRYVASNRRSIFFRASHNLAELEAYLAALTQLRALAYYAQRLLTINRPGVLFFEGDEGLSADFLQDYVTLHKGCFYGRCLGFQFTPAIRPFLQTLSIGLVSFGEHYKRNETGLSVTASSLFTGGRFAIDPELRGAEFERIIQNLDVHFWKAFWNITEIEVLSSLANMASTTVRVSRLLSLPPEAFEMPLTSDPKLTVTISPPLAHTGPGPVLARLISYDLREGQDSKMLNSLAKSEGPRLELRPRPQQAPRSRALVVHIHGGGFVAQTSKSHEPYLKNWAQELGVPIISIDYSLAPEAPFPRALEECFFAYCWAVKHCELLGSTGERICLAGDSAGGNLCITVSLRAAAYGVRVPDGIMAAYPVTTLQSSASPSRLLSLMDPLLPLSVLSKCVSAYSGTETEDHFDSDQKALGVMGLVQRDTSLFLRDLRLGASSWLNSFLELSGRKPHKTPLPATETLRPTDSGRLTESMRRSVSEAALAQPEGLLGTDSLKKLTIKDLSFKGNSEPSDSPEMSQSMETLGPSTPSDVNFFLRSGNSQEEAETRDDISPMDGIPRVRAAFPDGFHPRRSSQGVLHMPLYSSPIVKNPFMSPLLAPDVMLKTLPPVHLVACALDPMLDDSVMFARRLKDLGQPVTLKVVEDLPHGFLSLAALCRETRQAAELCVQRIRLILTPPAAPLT
Protocol: (§1) Isolated rat fat cells are obtained from epididymal fatty tissue from untreated male rats (Wistar, 220-250 g) by collagenase treatment according to published processes. The fat cells from 10 rats are washed three times by flotation with 50 ml each of homogenization buffer ([…], pH 7.4, 0.25 M sucrose, 1 mM ethylenediamine-N,N,N′,N′-tetraacetic acid (EDTA), 1 mM dithiothreitol (DTT), 10 μg/ml of leupeptin, 10 μg/ml of antipain, 20 μg/ml of pepstatin) and finally taken up in 10 ml of homogenization buffer. The fat cells are homogenized in a Teflon-in-glass homogenizer (Braun-Melsungen) by 10 strokes at 1500 rpm and 15° C. The homogenizate is centrifuged (Sorvall SM24 tubes, 5000 rpm, 10 min, 4° C.). […]
10 μl of p-nitrophenyl butyrate (PNPB)(2 mM in acetonitrile), 890 μl of 0.1 M KPi (pH 7.25), 0.9% NaCl, 1 mM DTT, and 100 μl of HSL (prepared as above, diluted in this buffer) are incubated at 37° C. for 10 min. […] An equivalent volume of the upper phase is then taken and the absorption is determined at 400 nm.
Substances are customarily tested in four independent batches. The inhibition of the enzymatic activity of the HSL by a test substance is determined by comparison with an uninhibited control reaction. The IC50 value is calculated by means of an inhibition curve using at least 10 concentrations of the test substance. […]

HSL [2] = biological target: T1, HSL; test: TAG assay ([3H]trioleoylglycerol cleavage); assay type: biochemical
Protocol: as §1, with “C.” for “C. The homogenizate is centrifuged (Sorvall SM24 tubes, 5000 rpm, 10 min, 4° C.).”
For the preparation of the substrate, 25-50 μCi of [^3H]trioleoylglycerol (TAG)(in toluene), 6.8 μMol of unlabeled trioleoylglycerol, and 0.6 mg of phospholipids (phosphatidylcholine/phosphatidylinositol 3:1 w/v) are mixed, dried over N2, and then taken up in 2 ml of 0.1 M potassium dihydrogenphosphate/potassium phosphate buffer (KPi)(pH 7.0) by ultrasonic treatment (Branson 250, microtip, setting 1-2, 2×1 min at a 1 min interval). […] After phase separation, one equivalent of the upper phase (1 ml) is taken and the radioactivity is determined by liquid scintillation measurement.
Substances are customarily tested in four independent batches. […] The IC50 value is calculated by means of an inhibition curve using at least 10 concentrations of the test substance. […]

With O=C(CCCCCCCCCCCNc1ccc([N+](=O)[O-])c2nonc12)OCC(O)CO (racemic) [Compound 3] the IC50 (HSL [1]) was over 100 µM and the IC50 (HSL [2]) was 15.3 µM and 17.3 µM.
